Reference: patent US20190142864A1, “METHODS AND SYSTEMS, FOR INTERFERING WITH VIABILITY OF BACTERIA AND RELATED ANTIMICROBIALS AND COMPOSITIONS” (CALIFORNIA INSTITUTE OF TECHNOLOGY, priority 2017, published 2019)
Entries after “also recorded” stand apart in the source; their conditions may differ.

Columns and labels:
P. aeruginosa cultures [1] = assay: Bacterial-survival endpoint assay, viable-cell plate counts after 4 hr; type: cell-based, Pseudomonas aeruginosa; details: for lethality (viable-cell plate counts): anoxic conditions with 400 μM nitrate; for lethality (viable-cell plate counts) / sensitivity of cultures (viable-cell plate counts): 40 μg/ml tobramycin, 10 mM chlorate
Experimental: In aerobic-survival endpoint assays, overnight aerobic cultures were pelleted, washed twice with and resuspended in LB, and added to a 96-well microtiter plate at high cell density (optical density at 500 nm [OD500]˜3). Wells also contained sodium chlorate (final concentration, 10 mM), sodium chlorite (final concentration, 10 mM), tobramycin (final concentration, 40 μg ml^−1), or an equal volume (20 μl) of dH2O in untreated-control wells (200-μl total volume per well). Ninety-six-well plates were incubated at 37° C. with shaking at 250 rpm for 4 hr before viable cells on plates were counted. Anaerobic-survival endpoint assays were performed as described above, except […], […], and 96-well plates were incubated anaerobically at 33° C. for 4 hr and then removed from the glove box so that cultures could be serially diluted for viable-cell plate counts.
(§1) Viable-cell plate counts were performed by serially diluting samples in phosphate-buffered saline (PBS). Dilutions spanning 7 orders of magnitude were plated on LB agar plates as 10-μl drips. Plates were incubated at 37° C. for ˜20 h, and incubation continued at room temperature (72 hr of total incubation) to allow for the growth of slow-growing colonies. Colonies were counted daily, and numbers of CFU per milliliter were calculated at the end of the incubation period. All viable-cell plate counting was carried out under aerobic conditions.
High-density P. aeruginosa cultures (˜10^9CFU ml^−1) were incubated with and without drugs under oxic conditions, […], or anoxic conditions without nitrate (no terminal electron acceptor) for 4 h, after which viability was determined (FIG. 1).

[2] = system: P. aeruginosa aggregate biofilms; assay: Agar block biofilm assay (ABBA), LIVE/DEAD staining and confocal microscopy; type: cell-based, Pseudomonas aeruginosa; details: 6 hr treatment; for killing of cells in aggregates at depth (SYTO 9/propidium iodide) / killing of cells in middepth aggregates (SYTO 9/propidium iodide) / killing of cells in surface aggregates (SYTO 9/propidium iodide): 40 μg/ml tobramycin, 10 mM chlorate; for viability of cells at depths of >200 μm: tobramycin compared to untreated samples
Experimental: Overnight aerobic cultures were diluted to an OD500 of 0.001 in molten agar growth medium that had been cooled to 44° C. For all agar block biofilm assays (ABBAs), the growth medium used was LB with 5 mM KNO3 and 0.5% noble agar. A portion of the dilution (175 p.1) was added to chambered cover glass slides (Thermo Fisher Scientific number 155409), solidified at room temperature, and incubated at 37° C. for 12 hr in a humidified chamber. After incubation, cells that were not suspended in the agar were removed by adding 400 μl PBS to the top of each agar block and gently pipetting. Liquid was removed by inversion, and the wash was repeated. Aggregate cells were then treated by pipetting 125 μl of 24 mM sodium chlorate (final concentration, 10 mM), 125 μl of 96 μg ml^−1 tobramycin (final concentration, 40 μg ml^−1), or 62.5 μl of 48 mM chlorate and 62.5 μl of 192 μg ml^−1 tobramycin in combination (10 mM and 40μg m^−1 final concentrations, respectively) on the top of the agar block. All chlorate and tobramycin solutions were made in LB, and 125 μl LB was pipetted on the top of untreated control agar blocks. Treated and untreated samples were incubated at 37° C. in a humidified chamber, with shaking at 220 rpm for 6 hr. After incubation, samples were inverted to remove liquid, and cells were stained using a BacLight LIVE/DEAD bacterial viability staining kit (Thermo Fisher Scientific number L7012). One hundred twenty-five microliters of staining solution (1 μl 3.34 mM SYTO 9, 1 μl 20 mM propidium iodide, 123 μl dH2O) was added to each sample, and samples were incubated at room temperature on a VWR variable-speed rocker at the highest speed for 90 min before being imaged.
Before being imaged, ABBA samples were inverted to remove the staining solution, and 75 μl of a 1:50 dilution of 5-μm fluorescent beads (Spherotech; CFP-5045-2) was added to each sample. Excess liquid was removed by wicking, and beads were used to mark the surface of each sample. ABBA aggregates were imaged using a Leica TCS SPE confocal microscope with an ACS APO 0.3-numeric-aperture/10× objective. The agar surface was determined by visualizing fluorescent beads using a 405-nm solid-state laser for excitation, with data collected from 425 to 475 nm. LIVE/DEAD data were collected using a 488-nm solid-state laser for excitation, with emission collected at 510 to 550 nm and 610 to 650 nm for SYTO 9 and propidium iodide, respectively. Images were collected from three distinct locations near the center of each well as 500-μm z-stacks (50 slices total, 10-μm step size). z-stacks were collected in 8-bit mode with a scan format of 512 by 512 pixels (for quantification) or 1,024 by 1,024 pixels (for representative images) and line averaging of 2. Representative images were chosen from 6 independent experiments.
To quantify ABBA staining, images were loaded in Fiji (92), and background was subtracted from each image using the rolling ball method with a radius of 100 pixels. A threshold was applied to all images to exclude pixels with a value of <20, and total pixel intensity for both stains was determined for each image using the RawIntDen value in the Integrated Density measurement function. The proportion of sensitive cells was determined for each image (at each depth) by dividing the propidium iodide integrated density by the sum of the propidium iodide- and SYTO 9-integrated densities. ABBA staining quantifications are averages from 6 independent experiments (3 technical replicates per independent experiment).
In the ABBA system, an overnight culture is diluted into 0.5% molten agar medium, allowed to solidify, and incubated overnight at 37° C. Agar-suspended cells grow as aggregates, which develop into metabolically distinct populations at different spatial scales.

[3] = system: P. aeruginosa narG transposon mutant; assay: Anaerobic adaptation and survival, narG mutant; type: cell-based, Pseudomonas aeruginosa; details: 1 mM chlorate, 72 hr anoxic
Experimental: Overnight cultures were grown aerobically in LB with 40 mM KNO3, 100 mM L-arabinose, 50 μg ml^−1 gentamicin (for strains containing pMQ72-derived plasmids), and 50 μg ml^−1 kanamycin (for transposon insertion strains). Overnight cultures were pelleted, washed twice in LB with 100 mM L-arabinose to remove antibiotics, and resuspended in LB with 100 mM L-arabinose with or without 1 mM sodium chlorate at high cell density (OD500˜3). Two hundred microliters of resuspended culture was added to 96-well microtiter plates, and the plates were moved to the anaerobic glove box for cells to adapt to the anaerobic lifestyle. After a 72-hr incubation at 33° C., 96-well plates were removed from the anaerobic glove box and viable cells on plates were counted to calculate numbers of CFU per milliliter (described above). Percent survival was calculated for each strain by dividing CFU-permilliliter values from cultures containing chlorate by the average CFU-per-milliliter value from control cultures lacking chlorate and multiplying by 100. CFU-per-milliliter values of untreated control cultures were similar across strains, ranging from 1.0×10^9 to 2.2×10^9. The percentage of chlorate remaining after the 72-hr incubation was determined for each strain by dividing the final chlorate concentration in each culture by the initial chlorate concentration in the medium and multiplying by 100. […]

[4] = system: P. aeruginosa ΔlasR ΔnarGHJI strain; assay: Anaerobic adaptation and survival, ΔlasR ΔnarGHJI; type: cell-based, Pseudomonas aeruginosa; details: 1 mM chlorate, 72 hr anoxic
Experimental: The narGHJI genes were deleted in WT PA14 and the isogenic ΔlasR background. The region upstream of narG was amplified using primers 5′-[…]-3′ (SEQ ID NO: 11) and 5′-[…]-3′ (SEQ ID NO: 12), and the region downstream of narI was amplified using primers 5′-[…]-3′ (SEQ ID NO: 13) and 5′-[…]-3′ (SEQ ID NO: 14). These fragments were cloned into HindIII- and SacI-digested pMQ30 (89) via Gibson cloning. […]
Overnight cultures were grown aerobically in LB with 40 mM KNO3, 100 mM L-arabinose, 50 μg ml^−1 gentamicin (for strains containing pMQ72-derived plasmids), and 50 μg ml^−1 kanamycin (for transposon insertion strains). […] After a 72-hr incubation at 33° C., 96-well plates were removed from the anaerobic glove box and viable cells on plates were counted to calculate numbers of CFU per milliliter (described above). Percent survival was calculated for each strain by dividing CFU-permilliliter values from cultures containing chlorate by the average CFU-per-milliliter value from control cultures lacking chlorate and multiplying by 100. […] The percentage of chlorate remaining after the 72-hr incubation was determined for each strain by dividing the final chlorate concentration in each culture by the initial chlorate concentration in the medium and multiplying by 100.

P. aeruginosa cultures [5] = assay: 72 hr survival assay with viable-cell counts and chlorate quantification; type: cell-based, Pseudomonas aeruginosa; details: 1 mM chlorate
Experimental: as §1

[6] = Stability of concentrations in cell-free growth medium (ion chromatography); details: LB, 72 hr; 1 mM chlorate oxic, anoxic, anoxic with 40 mM nitrate; 40 mM nitrate anoxic plus 1 mM chlorate
Experimental: One millimolar chlorate concentrations were monitored in LB that was incubated for 72 hr under oxic conditions (filled circles), anoxic conditions (open circles), and anoxic conditions with 40 mM nitrate (open circles). Forty millimolar nitrate concentrations were monitored in LB medium that was incubated for 72 hr under anoxic conditions plus 1 mM chlorate (filled circles).
Culture samples were centrifuged at 16,000×g at room temperature for 10 min to pellet cells. Supernatants were diluted 1:10 in dH2O and added to 0.5-ml vials (Thermo Fisher Scientific catalog numbers 038010 and 038011). Nitrate and chlorate concentrations were quantified using the Dionex ICS 2000 ion chromatography system (Environmental Analysis Center, Caltech). Samples were loaded via a 15-μl sample loop onto an AS-19 separator (2- by 250-mm) column protected by an AG-19 guard (2 by 50 mm), maintained at 30° C. […] Anions were detected at neutral pH using an AERS 500 2-mm suppressor (Thermo Fisher Scientific) operated in eluent recycle mode with an applied current of 30 mA, and the conductivity detection cell was maintained at 35° C. […] Sodium chlorate and potassium nitrate standards were used to identify sample analytes via retention time and to generate standard curves for quantifying analyte concentrations.

[7] = system: P. aeruginosa ΔlasR mutant; assay: 72 hr anoxic survival assay with viable-cell counts and chlorate quantification, ΔlasR; type: cell-based, Pseudomonas aeruginosa; details: anoxic conditions, 1 mM chlorate
Experimental: as §1

[8] = anoxic conditions with 40 mM nitrate
[9] = anoxic conditions without nitrate

Compound | lethality (viable-cell plate counts) (P. aeruginosa cultures [1]) | sensitivity of cultures (viable-cell plate counts) (P. aeruginosa cultures [1]; [8]) | sensitivity of cultures (viable-cell plate counts) (P. aeruginosa cultures [1]; [9]) | sensitivity of cultures (viable-cell plate counts) (P. aeruginosa cultures [1]; oxic conditions) | killing of cells in aggregates at depth (SYTO 9/propidium iodide) [2] | killing of cells in middepth aggregates (SYTO 9/propidium iodide) [2] | killing of cells in surface aggregates (SYTO 9/propidium iodide) [2] | viability of cells at depths of >200 μm [2] | chlorate sensitivity (viable-cell counts) ([3]; narG mutant complemented with narGHJI genes) | chlorate sensitivity (viable-cell counts) ([3]; narG mutant) | chlorate sensitivity (percent survival) [4] | chlorate-associated cell death (P. aeruginosa cultures [5]; anoxic cultures with 40 mM nitrate) | chlorate-associated cell death (P. aeruginosa cultures [5]; oxic cultures) | stability of concentration in cell-free growth medium (abiotic controls) [6] | viable-cell counts in ΔlasR cultures lower than WT at end of experiment [7] [fold] | sensitivity of anoxic cultures compared with oxic cultures (P. aeruginosa cultures [1]; 10 mM chlorite)
[O-][Cl+2]([O-])O [chlorate, sodium chlorate] | indistinguishable from that in cultures lacking nitrate | does not kill; also recorded: tolerant | sensitive; also recorded: kills | does not kill | killed | the exterior of middepth aggregates are chlorate tolerant, whereas aggregates at depth and the interior of middepth aggregates are killed | tolerant | most cells at depths of >200 μm are dead | restores chlorate sensitivity | resistant | chlorate tolerant | does not occur until nitrate is consumed | no chlorate-associated cell death | stable | 100 | 
O=[N+]([O-])[O-].[K+] [nitrate, KNO3] |  |  |  |  |  |  |  |  |  |  |  |  |  | stable |  | 
NC[C@H]1O[C@H](O[C@H]2[C@H](O)[C@@H](O[C@H]3O[C@H](CO)[C@@H](O)[C@H](N)[C@H]3O)[C@H](N)C[C@@H]2N)[C@H](N)C[C@@H]1O [tobramycin, reference compound] | indistinguishable from that in cultures lacking nitrate | sensitive | tolerant | sensitive | tolerant | cells on the exterior being killed and cells on the interior staying alive | killed | increased survival |  |  |  |  |  |  |  | 
sodium chlorite [reference compound] |  |  |  |  |  |  |  |  |  |  |  |  |  |  |  | much more sensitive
